Experiments:
[1] = molecular target: T1, 5-HT3A-A2 (M3M4 loop replaced by two alanines) (Mus musculus, UniProt P23979, DELINS338-452AA); experiment: Two-electrode voltage clamp, oocytes expressing 5-HT3A-A2; type: cell-based
T1 construct: expressed in transfected cells; host or cells: Xenopus laevis oocytes injected with mRNA
T1 sequence (P23979 with tags, fused parts or gaps isoform P23979-2 DELINS338-452AA limits assumed): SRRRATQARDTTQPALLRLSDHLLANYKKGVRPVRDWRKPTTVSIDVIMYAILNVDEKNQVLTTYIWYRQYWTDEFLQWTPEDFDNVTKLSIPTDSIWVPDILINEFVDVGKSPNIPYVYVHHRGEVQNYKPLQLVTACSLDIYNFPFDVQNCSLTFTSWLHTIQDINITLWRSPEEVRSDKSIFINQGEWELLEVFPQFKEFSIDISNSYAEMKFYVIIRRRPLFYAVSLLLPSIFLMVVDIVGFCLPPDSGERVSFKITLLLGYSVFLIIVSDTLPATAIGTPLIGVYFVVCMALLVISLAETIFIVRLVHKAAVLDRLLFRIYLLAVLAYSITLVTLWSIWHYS
Source text: (§1) The mouse 5-HT3A cDNA with an N-terminal V5 epitope tag was cloned into the pXOON vector as previously described, and is referred to in this paper as “wild-type” (WT). The starting construct for all of the M3M4 loop replacement constructs used in this work was the 5-HT3A-ΔM3M4 construct formed by splicing the cytoplasmic end of M3 (M3-LVHK/QDLQRP…) to the cytoplasmic end of M4 (…WLRVGY/VLDRLL-M4). The splice was made at the site of the “/” to yield the sequence M3-LVHK/VLDRLL-M4 [34]. This removed 115 residues predicted to form the M3M4 loop.
The construction of the 5-HT3A-glvM3M4 chimera with the 5-HT3A M3M4 loop replaced by the GLIC heptapeptide M3M4 loop (SQPARAA) was described previously. Point mutations, alanine and Gly-Ser-Ala insertions into the 5-HT3A-ΔM3M4 construct were generated with the Quikchange site directed mutagenesis procedure (Stratagene, La Jolla, CA). The entire coding region of all mutant constructs was verified by DNA sequencing (Albert Einstein College of Medicine DNA Sequencing Facility). The pXOON plasmid was linearized using NheI and capped mRNA prepared with T7 RNA polymerase (mMessage mMachine, Ambion, Austin, TX).
Use of Xenopus laevis in this study was carried out in strict accordance with the recommendations in the Guide for the Care and Use of Laboratory Animals of the National Institutes of Health. The protocol was approved by the Albert Einstein College of Medicine Animal Care and Use Committee (Protocol Number: 20081201). All surgery was performed under tricaine anesthesia, and all efforts were made to minimize suffering. Oocyctes were harvested from Xenopus (Nasco Science, Fort Atkinson, WI) anesthetized with 0.15% tricaine. Oocyctes were defolliculated by incubation in 2 mg ml^−1 Type 1A collagenase (Sigma-Aldrich, St. Louis, MO) in OR2 (85 mM NaCl, 2 mM KCl, 1 mM MgCl2, and 5 mM HEPES; pH adjusted to 7.5 with NaOH) for a 60 or 75 min. Oocytes were washed in OR2 and stored at 16°C in SOS medium: 100 mM NaCl, 2 mM KCl, 1 mM MgCl2, 1.8 mM CaCl2 5 mM HEPES, pH 7.5 with 100 IU ml^−1 penicillin, 100 µg ml^−1 streptomycin, and 250 ng ml^−1 amphotericin B (Invitrogen, Carlsbad, CA) and 5% horse serum (Sigma-Aldrich). 24 hrs following isolation, oocyctes were injected with 23 nl (2.3 ng) of mRNA and were kept in SOS media for 2–5 d at 16°C.
Currents were recorded under two-electrode voltage clamp from oocytes 2–5 d post-injection as described previously. […] The perfusion chamber volume was 200 µl. […]
(§2) Desensitization rates were determined by fitting a single exponential decay function to the current data with Prism 4 software (GraphPad Software). Significant differences compared with wild-type were determined by a one-way ANOVA (p<0.05) using Dunnett's multiple comparison post-hoc test (p<0.05). […]

[2] = molecular target: T2, 5-HT3A M3M4 loop SQPAARA construct (Mus musculus, UniProt P23979); experiment: Two-electrode voltage clamp, oocytes expressing SQPAARA loop construct; type: cell-based; conditions: 10 µM 5-HT, Xenopus oocytes
T2 construct: expressed in transfected cells; host or cells: Xenopus laevis oocytes injected with mRNA
Source text: as §1
(§3) The construction of the 5-HT3A-glvM3M4 chimera with the 5-HT3A M3M4 loop replaced by the GLIC heptapeptide M3M4 loop (SQPARAA) was described previously. Point mutations, alanine and Gly-Ser-Ala insertions into the 5-HT3A-ΔM3M4 construct were generated with the Quikchange site directed mutagenesis procedure (Stratagene, La Jolla, CA). […]
(§4) Currents were recorded under two-electrode voltage clamp from oocytes 2–5 d post-injection as described previously. […]
as §2

[3] = molecular target: T3, 5-HT3A construct with single glycine in place of the single alanine (Mus musculus, UniProt P23979, DELINS338-452G); experiment: Two-electrode voltage clamp, oocytes expressing single glycine loop construct; type: cell-based; conditions: Xenopus oocytes, data not shown
T3 construct: expressed in transfected cells; host or cells: Xenopus laevis oocytes injected with mRNA
Source text: as §1, §3, §4, §2

[4] = molecular target: T4, 5-HT3A construct with single proline in place of the single alanine (Mus musculus, UniProt P23979, DELINS338-452P); experiment: Two-electrode voltage clamp, oocytes expressing single proline loop construct; type: cell-based; conditions: Xenopus oocytes, data not shown
T4 construct: expressed in transfected cells; host or cells: Xenopus laevis oocytes injected with mRNA
Source text: as §1, §3, §4, §2

5-HT3A-A5 = molecular target: T5, 5-HT3A-A5 (Mus musculus, UniProt P23979); experiment: Radioactive 5-HT binding to oocytes expressing 5-HT3A-A5; conditions: 150 nM [3H]5-HT + 10 µM 5-HT, 5 min, 45 s cold wash
T5 construct: expressed in transfected cells; host or cells: Xenopus laevis oocytes injected with mRNA
Experimental: Assays were terminated by five washes with ice cold CFFR buffer, followed by solubilization of the oocytes individually with 200 µl 5% SDS. Total wash time was 45 s. […] All data points represent the average of at least fifteen individual oocytes derived from three separate oocyte isolations.
To determine the extent of non-specific binding, all binding experiments were performed in parallel with diethylpyrocarbonate-(DEPC)-treated-water injected oocytes or uninjected oocytes.

T4 sequence (P23979 with tags, fused parts or gaps isoform P23979-2 DELINS338-452P limits assumed): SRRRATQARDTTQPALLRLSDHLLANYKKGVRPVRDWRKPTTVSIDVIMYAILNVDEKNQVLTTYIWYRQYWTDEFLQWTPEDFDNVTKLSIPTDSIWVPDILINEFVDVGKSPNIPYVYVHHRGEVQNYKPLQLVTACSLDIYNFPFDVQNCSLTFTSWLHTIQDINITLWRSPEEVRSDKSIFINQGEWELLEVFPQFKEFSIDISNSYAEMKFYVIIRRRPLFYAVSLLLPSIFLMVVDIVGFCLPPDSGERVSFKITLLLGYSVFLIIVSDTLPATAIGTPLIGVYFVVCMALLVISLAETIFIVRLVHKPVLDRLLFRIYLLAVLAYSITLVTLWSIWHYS
T5 sequence (P23979 with tags, fused parts or gaps isoform P23979-2 limits assumed): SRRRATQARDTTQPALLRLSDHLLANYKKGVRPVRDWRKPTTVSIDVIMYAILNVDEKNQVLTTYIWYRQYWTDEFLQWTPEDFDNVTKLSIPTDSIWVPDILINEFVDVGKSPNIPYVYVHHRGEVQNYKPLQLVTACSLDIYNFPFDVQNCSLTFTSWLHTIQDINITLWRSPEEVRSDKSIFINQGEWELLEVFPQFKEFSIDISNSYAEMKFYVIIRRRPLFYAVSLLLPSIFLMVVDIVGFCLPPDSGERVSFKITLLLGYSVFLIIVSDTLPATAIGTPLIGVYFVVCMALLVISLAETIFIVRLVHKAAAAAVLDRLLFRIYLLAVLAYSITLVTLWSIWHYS
T2 sequence (P23979 with tags, fused parts or gaps): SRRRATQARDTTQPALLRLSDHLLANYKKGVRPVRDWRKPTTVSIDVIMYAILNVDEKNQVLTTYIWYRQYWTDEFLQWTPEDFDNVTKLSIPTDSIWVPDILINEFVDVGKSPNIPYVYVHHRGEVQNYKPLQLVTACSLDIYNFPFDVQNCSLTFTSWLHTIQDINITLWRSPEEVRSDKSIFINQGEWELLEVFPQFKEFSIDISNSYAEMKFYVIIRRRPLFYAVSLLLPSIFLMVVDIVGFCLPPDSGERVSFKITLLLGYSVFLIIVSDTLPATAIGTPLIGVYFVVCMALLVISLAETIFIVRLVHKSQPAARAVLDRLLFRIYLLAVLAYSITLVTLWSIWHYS
T3 sequence (P23979 with tags, fused parts or gaps isoform P23979-2 DELINS338-452G limits assumed): as the sequence (P23979 with tags, fused parts or gaps isoform P23979-2 DELINS338-452P limits assumed) above, with P315G counted along it

For NCCc1c[nH]c2ccc(O)cc12 [5-HT, 5-hydroxytryptamine], which “nH (Hill coefficient)” value [1] is on record?
The value was 2.0±0.3.

And the “10–90% Activation rise time” value ([1]; 10 µM 5-HT)?
The value was 617 ± 32 ms.

What about the “Imax (peak current)” value ([1]; 10 µM 5-HT, Xenopus oocytes, -60 mV) of the same molecule?
The value was 6900±260 nA.

What about the “Desensitization time constant τ” value ([1]; prolonged 10 µM 5-HT) of the same molecule?
The value was 43 ± 4 s.

And the Peak current [2]?
The Peak current was 320±25 nA.

What about the 5-HT induced current [3] of the same molecule?
The 5-HT induced current was “neither construct generated any 5-HT induced currents”.

What about the 5-HT induced current [4] of the same molecule?
Its 5-HT induced current is “neither construct generated any 5-HT induced currents”.

What about the “Radiolabeled 5-HT bound per oocyte” value (5-HT3A-A5) of the same molecule?
The value was 0.40±0.03 pmol per oocyte.

Source: paper PMC3335078, “Length and Amino Acid Sequence of Peptides Substituted for the 5-HT3A Receptor M3M4 Loop May Affect Channel Expression and Desensitization” (PLoS ONE, 2012)
